According to patent US5071857A, “2,6-dioxopiperidine derivatives, their preparation and pharmaceutical compositions containing them” (National Research Development Corporation, priority 1983, dated 1991):

Columns and labels:
central nervous system [1] = assay: Rotating rod experiments (rotarod test), drug-induced ataxia; details: for Falls/2 min: 100 mg/kg i.p.
[2] = system: Rat mammary tumours induced with MNU (N-methyl-N-nitrosourea); assay: Tests in vivo on tumour regression, MNU-induced rat mammary tumours; design: species or system rat (Ludwig Wistar/Ola, WF/ICRF/Ola, female); details: 0.165 millimoles/kg/day s.c.
Protocol: Unlike DMBA (7,12-dimethylbenz[a]anthracene) induced tumours, MNU tumours may be primarily oestrogen-, rather than prolactin-dependent, see Pruitt, Rose and Bryan, Proc. Ann. Cancer Res. 20, 87, (1979).
Using the method of Williams et al., supra, mammary tumours were induced in virgin female rats of the inbred strain Ludwig Wistar/Ola (WF/ICRF/Ola) by intravenous administration of MNU. MNU was dissolved in 0.9% aqueous sodium chloride solution acidified to pH 5 with acetic acid. Starting at age 50 days, each rat received 3 injections at 14 day intervals via the tail vein (5 mg MNU/100 g body weight/injection; injection volume of 0.5 ml/rat). Animals were assigned to experimental groups at 125-140 days after the first injection, with 12 animals in each group. At this time they bore from 1-3 tumours per animal.
Controls received equivalent injections of DMSO alone.
Results were expressed in terms of the percentage of initial tumour volume for each tumour after 42 day, treatment.

[3] = Stability of injection solutions at pH 3.5-4; assay type: physicochemical; details: 40 mg in 2 ml
Protocol: This went into solution at low pH very nicely. M NaOH was added to pH 3.5-4. The volume was made up using deionized water.

desmolase [4] = target: T1, desmolase (Bos taurus, UniProt P00189); assay: Inhibition of desmolase (mitochondrial fraction of bovine adrenal cortex, 14C-isocaproic acid release from (26-14C)-cholesterol); assay type: biochemical
T1 construct: The mitochondrial fraction of bovine adrenal cortex provided the source of desmolase; from tissue; host or cells: bovine adrenal cortex, mitochondrial fraction
T1 sequence (P00189 40-520): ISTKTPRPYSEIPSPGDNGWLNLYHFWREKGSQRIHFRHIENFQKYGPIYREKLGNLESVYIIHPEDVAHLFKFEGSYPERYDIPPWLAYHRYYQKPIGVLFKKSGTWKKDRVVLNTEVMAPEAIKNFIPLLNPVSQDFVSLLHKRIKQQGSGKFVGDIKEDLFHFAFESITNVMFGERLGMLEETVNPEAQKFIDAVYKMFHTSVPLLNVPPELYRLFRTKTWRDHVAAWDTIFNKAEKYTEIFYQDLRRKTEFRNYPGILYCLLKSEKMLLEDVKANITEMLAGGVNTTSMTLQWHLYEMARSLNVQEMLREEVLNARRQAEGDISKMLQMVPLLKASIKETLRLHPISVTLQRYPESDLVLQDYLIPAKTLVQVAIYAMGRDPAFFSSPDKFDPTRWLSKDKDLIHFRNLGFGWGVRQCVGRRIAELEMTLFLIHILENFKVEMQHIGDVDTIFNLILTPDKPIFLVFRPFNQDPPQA

desmolase [5] = details: background; cited from earlier work
central nervous system [6] = assay: Behavioral observations (Irwin observational assessment)
central nervous system [7] = assay: Studies on anticonvulsant properties, pentylenetetrazol-induced convulsions; details: i.p., dose not stated; pentylenetetrazol 50 mg/kg

For `CCC1(c2ccc(N)cc2)CCC(=O)NC1=O` (stereo not shown) [aminoglutethimide, 3-ethyl-3-(4-aminophenyl)glutarimide, reference compound], the “effect on motor co-ordination (in words)” value (central nervous system [1]; 100 mg/kg i.p. (Table 3)) was “pronounced effect on motor co-ordination. Most of the mice were heavily sedated and thus completely unable to maintain themselves on the rod at either speed”, the Falls/2 min (central nervous system [1]; 1 r.p.m., 15 min) was 18.5 ± 3.5 Falls/2 min and the Falls/2 min (central nervous system [1]; 1 r.p.m., 30 min) was 4.8 ± 2.0 Falls/2 min. The Falls/2 min (central nervous system [1]; 3 r.p.m., 15 min) was 27.0 ± 2.0 Falls/2 min, the “time of peak effect after injection” value (central nervous system [1]; i.p.) was 15 min and the “percentage of tumours which regress (in words)” value ([2]; 42 days) was “causes an increase in the percentage of tumours which regress”. For the same compound, the “No. tumours grown by more than 100%” value ([2]; after 6 weeks (42 days)) was 5 tumours, the “No. tumours grown by up to 100%” value ([2]; after 6 weeks (42 days)) was 2 tumours and the “No. tumours regressed but by less than 50%” value ([2]; after 6 weeks (42 days)) was 3 tumours. The “No. tumours regressed by 50% or more” value ([2]; after 6 weeks (42 days)) was 4 tumours, the “No. tumours with no change” value ([2]; after 6 weeks (42 days)) was 0 tumours and the “time after which salt precipitated from solution” value [3] was greater than 2 h. The Desmolase inhibition (desmolase [4]) was “+ + +”, the IC50 (desmolase [4]; 7 micromolar (14C) cholesterol) was 30 µM and the inhibition of desmolase (desmolase [5]) was “also inhibits the enzyme desmolase”. For the same compound, the Corneal reflex (central nervous system [6]; 100 mg/kg i.p.) was “+”, the Flexor reflex (central nervous system [6]; 100 mg/kg i.p.) was “Inc” and the Grooming (central nervous system [6]; 100 mg/kg i.p.) was “+”. The Motor activity (central nervous system [6]; 100 mg/kg i.p.) was “Dec”, the Righting reflex (central nervous system [6]; 100 mg/kg i.p.) was “+” and the Tremors (central nervous system [6]; 100 mg/kg i.p.) was “-”. The Twitches (central nervous system [6]; 100 mg/kg i.p.) was “-”, the “corneal, righting and flexor reflexes (in words)” value (central nervous system [6]; 100 mg/kg i.p.) was “Corneal, righting and flexor reflexes were still apparent” and the “sedation (in words)” value (central nervous system [6]; 100 mg/kg i.p.) was “marked sedation”. For the same compound, the “flexor reflex (in words)” value (central nervous system [6]; 100 mg/kg i.p., compared to untreated animals) was “slightly augmented”, the Passivity (central nervous system [6]; 100 mg/kg i.p., rating 0-4, 20-30 minutes after injection) was 3 and the “sleep (in words)” value (central nervous system [6]; 200 mg/kg i.p., three animals) was “all fell asleep within a few minutes of the injection”. The “prevention of pentylenetetrazol-induced convulsions” value (central nervous system [7]) was “prevented convulsions”.
